Results as given in patent publication US7026328B2, “Heterocyclic compounds which inhibit leukocyte adhesion mediated by α4 integrins” (Elan Pharmaceuticals, Inc., priority 2002, dated 2006).

Tests used:
[1] = molecular target: T1, α4β1 integrin (Homo sapiens, UniProt P05556+P13612); assay: α4β1 Integrin Adhesion Assay: Jurkat Cell Adhesion to Human Plasma Fibronectin; type: cell-based; conditions: Jurkat cells
T1 construct: Jurkat™ cells (maintained in log phase growth) were labeled with Calcein AM; endogenous in cells; host or cells: Jurkat cells
Description: 96 well plates (Costar 3590 EIA plates) were coated with human fibronectin (Gibco/BRL, cat #33016–023) at a concentration of 10 μg/mL overnight at 4° C. The plates were then blocked with a solution of bovine serum albumin (BSA; 0.3%) in saline. Jurkat™ cells (maintained in log phase growth) were labeled with Calcein AM according to the manufacturer's instructions, and suspended at a concentration of 2×10^6 cells/mL in Hepes/Saline/BSA. The cells were then exposed to test and control compounds for 30 minutes at room temperature before transfer to individual wells of the fibronectin coated plate. Adhesion was allowed to occur for 35 minutes at 37° C. The wells were then washed by gentle aspiration and pipetting with fresh saline. Fluorescence associated with the remaining adherent cells was quantified using a fluorescence plate reader at EX 485/EM 530.
Cell cultures were prepared by first splitting the stationary phase Jurkat™ cells at 1:10 on day one, and 1:2 on day two to perform assay on day 3. The cells split 1:10 on day one were split 1:4 on day 3 for a day 4 assay.
The assay plates were prepared by first making a working solution of Gibco/BRL Human Fibronectin (cat #33016-023) in PBS++, at 10 μg/mL. A Costar 3590 EIA plate was then coated with 50 μL/well for 2 hours at room temperature (thought it can also be left overnight at 4° C.). Finally the plate was asperated and blocked with Hepes/Saline Buffer, 100 μL/well, for 1 hour at RT followed by washing 3× with 150 μL of PBS++.
Compound dilutions were accomplished by preparing 1:3 serial dilutions of compounds as follows. For each plate (4 compounds/plate) 600 μL were added to 4 Bio-Rad Titertubes in a Titertube rack. […] Using Falcon Flexiplates, 100 μL of Hepes/Saline buffer or human serum were added to rows B through G. A multi-channel pipetter set to 180 μL was used to with four tips spaced evenly the pipetter. Each set of four tubes was mixed 5 times and 180 μL of 2× compound was transferred to the first column of each compound dilution in Row B, leaving Row A empty. 180 μL were added to the other wells in Row A. Serial dilutions were performed down the plate by transferring 50 μL to the next dilution and mixing 5 times, changing tips each time after mixing.
A 20 μg/mL solution in Hepes/Saline buffer or human serum, of 21/6 antibody was the positive control and was set aside in a reagent trough to add to cell suspension plate.
The cell staining was accomplished by first harvesting the log-phase Jurkat™ cells by centrifugation in 50 mL tubes (1100 rpm for 5 minutes). The cells were resuspended in 50 mL PBS++, spun, and resuspend in 20 mL PBS++. The cells were stained by adding 20 μL of Calcein AM for 30 minutes RT. The volume was brought to 50 mL with Hepes/Saline buffer and the cells were counted, spun, and resuspend to 2×10^6 cells/mL in Hepes/Saline buffer or human serum.
The compounds were incubated using the following procedure. In a new flexiplate, 65 μL of stained cells were added to Rows B through H. Then 65 μL of 2× compounds were added to the appropriate rows following the plate setup and mixed three times. 65 μL of 2×-21/6 antibody were added to Row H and mixed 3×. Finally the plate was incubated at room temperature for 30 minutes.
Fibronectin adhesion was measured using a fluorescent plate reader at EX 485/EM 530 after the following work up procedure. After incubation, the cells were mixed three times and 100 μL were transfered to the Fibronectin coated plates and incubated at 37° C. for about 35 minutes. Each plate was washed, row by row, by gently pipetting 100 μL of RT. PBS++ down the sides of the wells and turning the plate 90 degrees to aspirate. This procedure was repeated for a total of 3 washes. Each well was filled with 100 μL after washing by pipetting down the side of the well.
An IC50 value was calculated for each compound, both in the presence of the human serum and in the absence of human serum.

[2] = Cassette Dosing and Serum Analysis for Determination of Bioavailability; type: in vivo, rat; conditions: average AUC 0→12 h, male Sprague Dawley rats, single oral cassette dose (6 compounds, total dose 10 mg/kg), plasma
Description: The cassette included 5 test articles and a standard compound, for a total dose of 10 mg/kg. Each compound/test article was converted to the sodium salt with equimolar 1 N NaOH and dissolved in water at 2 mg/mL. The cassette was prepared by mixing equal volumes of each of the six solutions. The cassette dosing solution was mixed well and then the pH was adjusted to 7.5–9. The dosing solution was prepared the day before the study and stirred overnight at room temperature.
Male Sprague Dawley (SD) rats from Charles River Laboratories, 6–8 weeks old were used in this screen. Rats were quarantined for at least one day and had continuous access to food and water. On the night before the administration of the cassette, the rats were fasted for approximately 16 h.
Four SD rats were assigned in each cassette. A single dose of the dosing solution was administered orally to each rat. The dosing volume (5 mL/kg) and time were recorded and rats were fed 2 h after dosing.
Blood samples were collected via cardiac puncture at the following time points: 4 h, 8 h and 12 h. Immediately prior to blood collection, rats were anesthetized with CO2 gas within 10–20 seconds. After the 12-h samples were collected, the rats were euthanized via CO2 asphyxiation followed by cervical dislocation.
Blood samples were kept in heparinized microtainer tubes under sub-ambient temperature (4° C.) before they were processed. Blood samples were centrifuged (10000 rpm for 5 minutes) and plasma samples were removed and stored in a −20° C. freezer until analyzed for drug levels. Drug levels in the plasma were analyzed using the following protocol for direct plasma precipitation.
The in vivo plasma samples were prepared in a 1.5 mL 96-well plate, by adding, in order, 100 μL of the test plasma, 150 μL of methanol, followed by vortexing for 10–20 seconds. 150 μL of 0.05 ng/μL of an Internal Standard in acetonitrile were added and vortexed for 30 seconds.
The standard curve samples were prepared in a 1.5 mL 96-well plate, by adding, in order, 100 μL of control mouse plasma, followed by 150 μL of methanol and vortexing for 10–20 seconds. 150 μL of 0.05 ng/μL of an Internal Standard in acetonitrile were added and vortexed for 30 seconds. The samples were spiked with 0–200 ng (10 concentrations) of the compound of interest in 50% methanol to obtain a standard curve range of 0.5 ng/mL–2,000 ng/mL. Again, the sample was vortexed for 30 seconds.
The samples were then spun for 20–30 minutes at 3000 rpm in an Eppendorf microfuge before 80–90% of supernatant was transferred into a clean 96-well plate. The organic solvent was then evaporated until the samples were dry (under N2 at 40° C./30–60 min (Zymark Turbovap)).
The residue was then dissolved in […] mobile phase (50% CH3OH/0.1% TFA). LC/MS/MS was then run using a PE-Sciex API-3000 triple quadurpole mass spectrometer (SN0749707), Perkin-Elmer, Series200auto-sampler, and shimadzu 10A pump. Acquisition was done with PE-Sciex Analyst (v1.1) and data analysis and quantification were accomplished using PE-Sciex Analyst (v1.1). A 5–50 μL sample volume was injected onto a reverse phase ThermoHypersil DASH-18 column (Keystone 2.0×20 mm, 5 μm, PN: 8823025-701) using a mobile phase of 25% CH3OH, 0.1% TFA-100% CH3OH, 0.1% TFA. The run time was about 8 minutes at a flow rate of about 300 μL/minutes.
The Area Under the Curve (AUC) was calculated using the linear trapezoidal rule from t=0 to the last sampling time tx (see Handbook of Basic Pharmacokinetics, Wolfgang A. Ritschel and Gregory L. Kearns, 5th ed, 1999). AUC^0→tx=S((Cn+Cn+1)/2))·(tn+1−tn)[(μg/mL)h]

T1 sequence (P13612 34-1032): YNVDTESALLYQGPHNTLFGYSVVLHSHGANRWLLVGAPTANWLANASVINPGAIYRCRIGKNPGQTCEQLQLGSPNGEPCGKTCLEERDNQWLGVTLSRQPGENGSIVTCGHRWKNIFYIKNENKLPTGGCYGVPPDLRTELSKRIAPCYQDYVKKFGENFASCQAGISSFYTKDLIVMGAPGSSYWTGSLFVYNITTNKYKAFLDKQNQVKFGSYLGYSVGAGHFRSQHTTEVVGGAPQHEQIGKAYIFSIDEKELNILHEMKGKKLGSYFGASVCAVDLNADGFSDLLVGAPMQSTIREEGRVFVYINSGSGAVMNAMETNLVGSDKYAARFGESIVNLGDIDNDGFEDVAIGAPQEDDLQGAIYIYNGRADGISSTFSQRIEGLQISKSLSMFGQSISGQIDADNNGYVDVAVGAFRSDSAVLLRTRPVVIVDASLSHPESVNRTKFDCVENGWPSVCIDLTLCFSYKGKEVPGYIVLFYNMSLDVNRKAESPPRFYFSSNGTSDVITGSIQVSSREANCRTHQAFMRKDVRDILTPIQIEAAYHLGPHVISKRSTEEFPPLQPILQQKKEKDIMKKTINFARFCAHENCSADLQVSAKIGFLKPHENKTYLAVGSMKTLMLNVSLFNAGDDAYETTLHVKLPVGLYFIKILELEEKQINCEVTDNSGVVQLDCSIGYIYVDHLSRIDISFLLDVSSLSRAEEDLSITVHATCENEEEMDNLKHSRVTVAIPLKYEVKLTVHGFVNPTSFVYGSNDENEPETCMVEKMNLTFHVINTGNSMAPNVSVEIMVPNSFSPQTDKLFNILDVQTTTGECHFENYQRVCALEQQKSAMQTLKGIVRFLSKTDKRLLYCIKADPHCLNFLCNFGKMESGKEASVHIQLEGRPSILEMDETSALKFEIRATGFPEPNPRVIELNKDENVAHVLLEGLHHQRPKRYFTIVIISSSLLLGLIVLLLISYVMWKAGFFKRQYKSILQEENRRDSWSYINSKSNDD
T1 sequence (P05556 21-798): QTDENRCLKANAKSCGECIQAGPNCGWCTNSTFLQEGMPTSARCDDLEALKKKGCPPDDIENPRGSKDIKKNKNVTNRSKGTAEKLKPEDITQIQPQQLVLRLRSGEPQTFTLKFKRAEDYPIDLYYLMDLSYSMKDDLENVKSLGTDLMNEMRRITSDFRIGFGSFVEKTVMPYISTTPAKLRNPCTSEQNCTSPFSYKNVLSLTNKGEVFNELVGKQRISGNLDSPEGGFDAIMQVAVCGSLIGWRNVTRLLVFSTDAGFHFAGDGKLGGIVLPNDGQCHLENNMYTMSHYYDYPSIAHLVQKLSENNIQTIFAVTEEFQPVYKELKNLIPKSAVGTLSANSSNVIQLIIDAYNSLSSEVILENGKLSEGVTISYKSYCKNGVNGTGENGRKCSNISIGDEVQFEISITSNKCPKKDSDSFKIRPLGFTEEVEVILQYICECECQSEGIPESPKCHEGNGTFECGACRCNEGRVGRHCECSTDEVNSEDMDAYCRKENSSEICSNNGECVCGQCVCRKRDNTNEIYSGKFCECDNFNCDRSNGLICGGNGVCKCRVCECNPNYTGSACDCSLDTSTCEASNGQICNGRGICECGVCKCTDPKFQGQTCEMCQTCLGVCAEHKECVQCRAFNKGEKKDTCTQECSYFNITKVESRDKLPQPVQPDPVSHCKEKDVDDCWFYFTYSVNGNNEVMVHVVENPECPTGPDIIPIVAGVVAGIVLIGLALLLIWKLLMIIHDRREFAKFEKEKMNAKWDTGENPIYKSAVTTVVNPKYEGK

Structure (SMILES) | IC50 ([1]; containing human serum) [nM] | IC50 ([1]; without the human serum) [nM] | AUC [2]
CCN(CC)c1ncc(N(CC)S(=O)(=O)c2ccc(Cl)cc2)c(N[C@@H](Cc2ccc(OC(=O)N3CCCC3)cc2)C(=O)O)n1 [Example 1, N-(2-[N′,N′-diethylamino]-5-[N″-(4-chlorophenylsulfonyl)-N″-ethylamino]pyrimidin-4-yl)-4′-(pyrrolidin-1-ylcarbonyloxy)-L-phenylalanine] | 409 | 17 | 14.798 (μg/mL)h
CCN(CC)c1ncc(N(CC)S(=O)(=O)c2ccc(F)cc2)c(N[C@@H](Cc2ccc(OC(=O)N3CCC3)cc2)C(=O)O)n1 [Example 7, N-(2-[N′,N′-diethylamino]-5-[N″-(4-fluorophenylsulfonyl)-N″-ethylamino]pyrimidin-4-yl)-4′-(azetidin-1-ylcarbonyloxy)-L-phenylalanine] | 86.2 | 1.63 | 0.8979 (μg/mL)h
CCN(CC)c1ncc(N(C)S(=O)(=O)c2ccc(Cl)cc2)c(N[C@@H](Cc2ccc(OC(=O)N3CCC3)cc2)C(=O)O)n1 [Example 9] | 207 | 3.24 | 2.0774 (μg/mL)h
CCN(CC)c1ncc(N(CC)S(=O)(=O)c2ccc(Cl)cc2)c(N[C@@H](Cc2ccc(OC(=O)N3CCC3)cc2)C(=O)O)n1 [Example 10, N-(2-[N′,N′-diethylamino]-5-[N″-(4-chlorophenylsulfonyl]-N″-ethylamino]pyrimidin-4-yl)-4′-(azetidin-1-ylcarbonyloxy)-L-phenylalanine] | 82.9 | 4.06 | 2.1113 (μg/mL)h
C#CCN(c1cnc(N(CC)CC)nc1N[C@@H](Cc1ccc(OC(=O)N2CCCC2)cc1)C(=O)O)S(=O)(=O)c1ccc(F)cc1 [Example 15, N-(2-[N′,N′-diethylamino]-5-[N″-(4-fluorophenylsulfonyl)-N″-propargylamino]pyrimidin-4-yl)-4′-(pyrrolidin-1-ylcarbonyloxy)-L-phenylalanine] | – | – | 90.317 (μg/mL)h
C#CCN(c1cnc(N(CC)CC)nc1N[C@@H](Cc1ccc(OC(=O)N2CCCC2)cc1)C(=O)O)S(=O)(=O)c1ccc(Cl)cc1 [Example 19, N-(2-[N′,N′-diethylamino]-5-[N″-(4-chlorophenylsulfonyl)-N″-propargylamino]pyrimidin-4-yl)-4′-(pyrrolidin-1-ylcarbonyloxy)-L-phenylalanine] | 6280 | 6.93 | –

Further lines, results first:

IC50 ([1]; containing human serum) [nM] | IC50 ([1]; without the human serum) [nM] | AUC [2] | Structure (SMILES)
604 | 1.59 | 15.971 (μg/mL)h | CCN(CC)c1ncc(N(CC)S(=O)(=O)c2ccc(F)cc2)c(N[C@@H](Cc2ccc(OC(=O)N3CCCC3)cc2)C(=O)O)n1 [Example 2, N-(2-[N′,N′-diethylamino]-5-[N″-(4-fluorophenylsulfonyl)-N″-ethylamino]pyrimidin-4-yl)-4′-(pyrrolidin-1-ylcarbonyloxy)-L-phenylalanine]
1730 | 6.51 | 22.271 (μg/mL)h | CCN(CC)c1ncc(N(C)S(=O)(=O)c2ccc(F)cc2)c(N[C@@H](Cc2ccc(OC(=O)N3CCCC3)cc2)C(=O)O)n1 [Example 3, N-(2-[N′,N′-diethylamino]-5-[N″-(4-fluorophenylsulfonyl)-N″-methylamino]pyrimidin-4-yl)-4′-(pyrrolidin-1-ylcarbonyloxy)-L-phenylalanine]
2280 | 19 | 13.829 (μg/mL)h | CCN(CC)c1ncc(N(C)S(=O)(=O)c2ccc(Cl)cc2)c(N[C@@H](Cc2ccc(OC(=O)N3CCCC3)cc2)C(=O)O)n1 [Example 4, N-(2-[N′,N′-diethylamino]-5-[N″-(4-chlorophenylsulfonyl)-N″-methylamino]pyrimidin-4-yl)-4′-(pyrrolidin-1-ylcarbonyloxy)-L-phenylalanine]
1570 | 6 | 2.1654 (μg/mL)h | CCN(CC)c1ncc(N(C)S(=O)(=O)c2ccc(F)cc2)c(N[C@@H](Cc2ccc(OC(=O)N3CCCCC3)cc2)C(=O)O)n1 [Example 5, N-(2-[N′,N′-diethylamino]-5-[N″-(4-fluorophenylsulfonyl)-N″-methylamino]pyrimidin-4-yl)-4′-(piperidin-1-ylcarbonyloxy)-L-phenylalanine]
702 | 4.67 | 0.5125 (μg/mL)h | CCN(CC)c1ncc(N(CC)S(=O)(=O)c2ccc(F)cc2)c(N[C@@H](Cc2ccc(OC(=O)N3CCCCC3)cc2)C(=O)O)n1 [Example 6, N-(2-[N′,N′-diethylamino]-5-[N″-(4-fluorophenylsulfonyl)-N″-ethylamino]pyrimidin-4-yl)-4′-(piperidin-1-ylcarbonyloxy)-L-phenylalanine]
225 | 1.66 | 2.4082 (μg/mL)h | CCN(CC)c1ncc(N(C)S(=O)(=O)c2ccc(F)cc2)c(N[C@@H](Cc2ccc(OC(=O)N3CCC3)cc2)C(=O)O)n1 [Example 8, N-(2-[N′,N′-diethylamino]-5-[N″-(4-fluorophenylsulfonyl)-N″-methylamino]pyrimidin-4-yl)-4′-(azetidin-1-ylcarbonyloxy)-L-phenylalanine]
